Reference: patent US20080275078A1, “Pyrazolo[3,4-B] Pyridine Compounds and Their Use as Pde4 Inhibitors” (Glaxo Group Limited, priority 2004, published 2008)

Columns and labels:
[1] = tested on: atopic dermatitis patients; details: 0.5% ointment, twice daily topical application; cited from earlier work
[2] = Preliminary test of systemic exposure after oral administration to rat(s); assay type: in vivo; details: about 1 mg/kg, free base, in approx. 10% DMSO and 90% PEG200/water (70:30), preliminary tests
Excerpt: Although the compound of formula (I) or salt thereof may be administered orally, oral administration is not presently thought to be a preferred route of administration, at least for the compound 4-{[1-(aminocarbonyl)-4-piperidinyl]amino}-N-[(3,4-dimethylphenyl)methyl]-1-ethyl-1H-pyrazolo[3,4-b]pyridine-5-carboxamide (“free base” form) (e.g. Example 2, 2A or 2B).

Measured logD = assay type: physicochemical; details: octanol/water; pH=7.4, free base
[3] = Preliminary aqueous solubility screen; assay type: physicochemical; details: pH 7.4 PBS with about 5% DMSO, about room temperature, free base
Method: Aqueous solubility: A preliminary screen aims to estimate roughly the aqueous solubility of compounds by (as an approximate summary): (i) creating a ca. 10 mM solution of the compound in DMSO, (ii) diluting a portion of this DMSO solution by mixing about 19 parts by volume of pH 7.4 aqueous phosphate buffered saline (PBS) buffer with 1 part by volume of the ca. 10 mM DMSO solution, (iii) “filtering” the mixture with the aid of centrifugation, and then (iv) measuring the concentration of the dissolved compound in the “filtrate”.

[4] = tested on: dinitrofluorobenzene (DNFB)-induced delayed type hypersensitivity (DTH) response in pigs; test: In Vivo Assay A: pig model of atopic dermatitis, skin topical administration; details: for reduction in the mean summed score: ca. 2.5% (w/v) in DMSO/acetone solution, about 2 h prior to and 6 h after DNFB challenge, vs vehicle alone
Excerpt: The pig DTH (delayed type hypersensitivity) model of contact hypersensitivity utilizes the Th2-mediated inflammatory response in pig skin to mimic the pathology of atopic dermatitis in humans. The model measures the potential anti-inflammatory effect of compounds, topically-applied to the skin, on the acute DTH (delayed type hypersensitivity) response in castrated male Yorkshire pigs.
In general in the assay, pigs (domestic Yorkshire pigs, 15-18 kg at time of sensitization, castrated males) are first sensitized by topical application of ca. 10% (w/v) dinitrofluorobenzene (DNFB) dissolved in DMSO:acetone:olive oil (ca. 1:5:3) (ca. 40 mg DNFB, 400 microlitre solution total) to the ears (outer) and groin (inner). The pigs are then challenged 12 days later with ca. 0.6% (w/v) DNFB applied to randomized sites on the shaved back of the pigs (ca. 90 micrograms/site; sites are identified and numbered by grid made with marking pen).
On the day of challenge, the treatments are performed at the challenge sites at about 2 hours prior to and about 6 hours after challenge (for DMSO/acetone solutions/suspensions containing the PDE4 inhibitor, to maximize exposure to drug), or at about 30 minutes after and about 6 hours after challenge (for topical ointments or creams containing the PDE4 inhibitor, representing a more clinically relevant treatment protocol).
One day (about 24 hrs) after challenge, and optionally again at ca. 48 hrs post challenge, test sites are visually evaluated for intensity and extent of erythema by measuring the diameter of the reaction at its widest point and assigning scores of 0 to 4 for each of erythema intensity and erythema extent. Induration (a measure of swelling) is also scored 0 to 4. Scores for erythema intensity, erythema extent and induration are assigned according to the following criteria: Intensity of Erythema: 0=normal, 1=minimal, barely visible, 2=mild, 3=moderate, 4=severe. Extent of Erythema (not raised): 0=no edema, 1=macules of pin head size, 2=lentil sized macules, 3=confluent macules, 4=diffuse over entire site. Induration (palpable): 0=normal, 1=nodules of pin head size, 2=doughy lentil sized nodules, 3=confluent firm nodules, 4=diffuse hard lesion. The summed visual score at ca. 24 hours includes the individual scores for erythema intensity, erythema extent, and induration; so the maximal summed score for each site would be 12. High summed scores can generally indicate a high inflammatory response. Visual scores are subject to some inaccuracy/error.
Differences in the summed score between adjacent control (placebo) and treatment sites on the grids are calculated. This difference value is then used to determine the percent inhibition compared to the summed score for the control (placebo) sites. The more negative the difference value, the greater the calculated inhibition. Percent inhibition of (percent inhibition compared to) the mean summed score can be calculated.
About 24 hours after challenge, treatment sites can optionally also be visually evaluated for lesion area.
The anti-inflammatory effect of the compound 4-{[1-(aminocarbonyl)-4-piperidinyl]amino}-N-[(3,4-dimethylphenyl)methyl]-1-ethyl-1H-pyrazolo[3,4-b]pyridine-5-carboxamide (“Example 2 or 2A compound”), applied topically to the skin, on the acute DTH response in castrated male Yorkshire pigs is compared to that of another PDE4 inhibitor cipamfylline (BRL-61063) and the topical immunomodulator pimecrolimus.
In the above assay, the Example 2 or 2A compound is topically administered: either (A) at ca. 2.5% (w/v) concentration in a solution of ca. 10% DMSO/90% acetone (ca. 50 microlitres or ca. 1.5 mg/site) at about 2 hours prior to and about 6 hours after the DNFB challenge; or (B) at ca. 0.5% (w/w) concentration in an ointment containing propylene glycol (PG)* (ca. 25 mg of formulation/site) at about 30 minutes after and about 6 hours after the DNFB challenge. […]

COPD patients = details: cited from earlier work
[5] = tested on: atopic dermatitis patients; details: 0.15% cream vs vehicle and hydrocortisone 17-butyrate (0.1%) cream; cited from earlier work

## COc1ccc(C2CNC(=O)NC2)cc1O[C@H]1C[C@@H]2CC[C@H]1C2 [CP80,633]
[1]
  inflammatory parameters in atopic dermatitis patients: reductions of inflammatory parameters

## CCn1ncc2c(NC3CCN(C(N)=O)CC3)c(C(=O)NCc3ccc(C)c(C)c3)cnc21 [Example 2, 4-{[1-(aminocarbonyl)-4-piperidinyl]amino}-N-[(3,4-dimethylphenyl)methyl]-1-ethyl-1H-pyrazolo[3,4-b]pyridine-5-carboxamide]
other
  melting point: 152 to 154 °C
[2]
  systemic exposure after oral administration: low systemic exposure
Measured logD
  logD: ~3.4
[3]
  aqueous solubility: about 60 micrograms of the compound/ml
[4]; ca. 0.5% (w/w) in PG ointment, about 30 min and 6 h after DNFB challenge, vs placebo PG ointment, ca. 24 h, p<0.05
  inhibition of the mean summed score (erythema intensity, erythema extent, induration): 13-14%
[4]
  reduction in the mean summed score: about 21%
[4]; skin administration in DMSO/acetone or PG ointment, results subject to some inaccuracy/error
  lesion area: decrease the lesion area

## COc1ccc([C@]2(C#N)CC[C@@H](C(=O)O)CC2)cc1OC1CCCC1 [cilomilast]
COPD patients; 15 mg orally twice daily
  forced expiratory volume (FEV1) in COPD patients: appears to improve forced expiratory volume
COPD patients; human, in vivo
  antiinflammatory effects in COPD patients: appears to have antiinflammatory effects

## Nc1nc2c([nH]1)c(=O)n(CC1CC1)c(=O)n2CC1CC1 [cipamfylline, reference compound]
[5]
  effectiveness in the treatment of atopic dermatitis patients: significantly more effective than vehicle, but significantly less effective than hydrocortisone 17-butyrate (0.1%) cream
[4]; ca. 0.25% (w/w) in ointment, not statistically significant
  reduction in the summed scores: 6-7%
[4]
  reduction in the mean summed score: about 8%

## O=C(Nc1c(Cl)cncc1Cl)c1ccc(OC(F)F)c(OCC2CC2)c1 [roflumilast]
COPD patients; roflumilast, Lipworth 2005
  FEV1 in COPD patients: small improvements in FEV1
